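Five compound concentrations were applied to cells in 96-well plates for 48 hours; endpoints were derived by simple linear interpolation of the resulting dose-response curve. GI50 = concentration required for 50% inhibition of growth.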 The source made the active and inactive calls. Rule as the data show it: active = GI50 up to about 1.1 µM and inactive = higher.
Key:
Assay in all cases: NCI anticancer screen, dose series, 48 h
786-0 = test system: 786-0
A498 = test system: A498
A549 = test system: A549
ACHN = test system: ACHN
CAKI-1 = test system: CAKI-1
CCRF-CEM = test system: CCRF-CEM
COLO 205 = test system: COLO 205
DU-145 = test system: DU-145
EKVX = test system: EKVX
HCC 2998 = test system: HCC 2998
HCT-116 = test system: HCT-116
HCT-15 = test system: HCT-15
HL-60 = test system: HL-60
HOP-62 = test system: HOP-62
HOP-92 = test system: HOP-92
HT-29 = test system: HT-29
Hs-578T = test system: Hs-578T
IGROV-1 = test system: IGROV-1
K562 = test system: K562
KM12 = test system: KM12
LOX IMVI = test system: LOX IMVI
M14 = test system: M14
MCF7 = test system: MCF7
MDA-MB-231 = test system: MDA-MB-231
MDA-MB-435 = test system: MDA-MB-435
MDA-N = test system: MDA-N
MOLT-4 = test system: MOLT-4
Malme-3M = test system: Malme-3M
NCI-H226 = test system: NCI-H226
NCI-H23 = test system: NCI-H23
NCI-H460 = test system: NCI-H460
NCI-H522 = test system: NCI-H522
NCI/ADR-RES = test system: NCI/ADR-RES
OVCAR-3 = test system: OVCAR-3
OVCAR-4 = test system: OVCAR-4
OVCAR-5 = test system: OVCAR-5
OVCAR-8 = test system: OVCAR-8
PC-3 = test system: PC-3
RPMI-8226 = test system: RPMI-8226
RXF 393 = test system: RXF 393
SF-268 = test system: SF-268
SF-295 = test system: SF-295
SF-539 = test system: SF-539
SK-MEL-28 = test system: SK-MEL-28
SK-MEL-2 = test system: SK-MEL-2
SK-MEL-5 = test system: SK-MEL-5
SK-OV-3 = test system: SK-OV-3
SN12C = test system: SN12C
SNB-19 = test system: SNB-19
SNB-75 = test system: SNB-75
SR = test system: SR
SW-620 = test system: SW-620
T47D = test system: T47D
TK-10 = test system: TK-10
U-251 = test system: U-251
UACC-257 = test system: UACC-257
UACC-62 = test system: UACC-62
UO-31 = test system: UO-31

CCN(CC)CC/N=c1\c2cc(OC)ccc2[nH]c2c([N+](=O)[O-])ccc(NCCN(CC)CC)c12
GI50 (786-0): 0.399 µM (active) | GI50 (A498): 2.3 µM (inactive) | GI50 (A549): 1.05 µM (active) | GI50 (ACHN): 2.78 µM (inactive) | GI50 (CAKI-1): 2.33 µM (inactive) | GI50 (CCRF-CEM): 0.258 µM (active) | GI50 (COLO 205): 0.875 µM (active) | GI50 (DU-145): 2.37 µM (inactive) | GI50 (EKVX): 1.93 µM (inactive) | GI50 (HCC 2998): 0.718 µM (active) | GI50 (HCT-116): 0.853 µM (active) | GI50 (HCT-15): 1.02 µM | GI50 (HL-60): 0.989 µM (active) | GI50 (HOP-62): 1.18 µM (inactive) | GI50 (HOP-92): 1.83 µM (inactive) | GI50 (HT-29): 0.7 µM (active) | GI50 (Hs-578T): 1.46 µM (inactive) | GI50 (IGROV-1): 2.34 µM (inactive) | GI50 (K562): 0.306 µM (active) | GI50 (KM12): 0.875 µM (active) | GI50 (LOX IMVI): 0.794 µM (active) | GI50 (M14): 2.88 µM (inactive) | GI50 (MCF7): 0.698 µM (active) | GI50 (MDA-MB-231): 0.966 µM (active) | GI50 (MDA-MB-435): 1.88 µM (inactive) | GI50 (MDA-N): 1.12 µM (inactive) | GI50 (MOLT-4): 0.198 µM (active) | GI50 (Malme-3M): 1.82 µM (inactive) | GI50 (NCI-H226): 0.955 µM (active) | GI50 (NCI-H23): 1.86 µM (inactive) | GI50 (NCI-H460): 0.386 µM (active) | GI50 (NCI-H522): 1.14 µM (inactive) | GI50 (NCI/ADR-RES): 1.01 µM (active) | GI50 (OVCAR-3): 1.92 µM (inactive) | GI50 (OVCAR-4): 1.15 µM (inactive) | GI50 (OVCAR-5): 1.57 µM (inactive) | GI50 (OVCAR-8): 0.482 µM (active) | GI50 (PC-3): 0.706 µM (active) | GI50 (RPMI-8226): 0.451 µM (active) | GI50 (RXF 393): 1.26 µM (inactive) | GI50 (SF-268): 2.27 µM (inactive) | GI50 (SF-295): 1.26 µM (inactive) | GI50 (SF-539): 1.06 µM (active) | GI50 (SK-MEL-28): 4.11 µM (inactive) | GI50 (SK-MEL-2): 2.06 µM (inactive) | GI50 (SK-MEL-5): 1.57 µM (inactive) | GI50 (SK-OV-3): 3.12 µM (inactive) | GI50 (SN12C): 0.925 µM (active) | GI50 (SNB-19): 0.794 µM (active) | GI50 (SNB-75): 1.9 µM (inactive) | GI50 (SR): 0.16 µM (active) | GI50 (SW-620): 0.6 µM (active) | GI50 (T47D): > 7.38 µM (inactive) | GI50 (TK-10): 2.11 µM (inactive) | GI50 (U-251): 1.24 µM (inactive) | GI50 (UACC-257): 4.17 µM (inactive) | GI50 (UACC-62): 5.26 µM (inactive) | GI50 (UO-31): 1.17 µM (inactive)

CC[C@H](C)C1=C(OC(C)=O)[N@+]2([O-])Oc3ccc(-c4c(OC(C)=O)c(OC(C)=O)c(-c5ccc(OC(C)=O)cc5)c(OC(C)=O)c4OC(C)=O)cc3O[C@]2([C@@H](C)CC)C(=O)N1OC(C)=O
GI50 (786-0): 13.6 µM (inactive) | GI50 (A498): 14.1 µM (inactive) | GI50 (A549): 12.7 µM (inactive) | GI50 (ACHN): 15.5 µM (inactive) | GI50 (CAKI-1): 20 µM (inactive) | GI50 (CCRF-CEM): 0.294 µM (active) | GI50 (COLO 205): 8.15 µM (inactive) | GI50 (DU-145): 16.6 µM (inactive) | GI50 (EKVX): 5.45 µM (inactive) | GI50 (HCC 2998): 0.00766 µM (active) | GI50 (HCT-116): 15.2 µM (inactive) | GI50 (HCT-15): 15.5 µM | GI50 (HL-60): 10.5 µM (inactive) | GI50 (HT-29): 15.6 µM (inactive) | GI50 (IGROV-1): 9.29 µM (inactive) | GI50 (K562): 14.5 µM (inactive) | GI50 (KM12): 14.4 µM (inactive) | GI50 (LOX IMVI): 10.2 µM (inactive) | GI50 (M14): 16.9 µM (inactive) | GI50 (MCF7): 17.5 µM (inactive) | GI50 (MDA-MB-231): 23.9 µM (inactive) | GI50 (MDA-MB-435): 16 µM (inactive) | GI50 (MDA-N): 9.79 µM (inactive) | GI50 (MOLT-4): 11.6 µM (inactive) | GI50 (Malme-3M): 15.2 µM (inactive) | GI50 (NCI-H226): 17.6 µM (inactive) | GI50 (NCI-H23): 15.7 µM (inactive) | GI50 (NCI-H460): 20 µM (inactive) | GI50 (NCI-H522): 8.05 µM (inactive) | GI50 (NCI/ADR-RES): 17.9 µM (inactive) | GI50 (OVCAR-3): 9.29 µM (inactive) | GI50 (OVCAR-4): 12.2 µM (inactive) | GI50 (OVCAR-5): 29.2 µM (inactive) | GI50 (OVCAR-8): 11.5 µM (inactive) | GI50 (PC-3): 8.59 µM (inactive) | GI50 (RPMI-8226): 9.2 µM (inactive) | GI50 (RXF 393): 38.3 µM (inactive) | GI50 (SF-268): 14.7 µM (inactive) | GI50 (SF-295): 9.25 µM (inactive) | GI50 (SF-539): 11.2 µM (inactive) | GI50 (SK-MEL-28): 12.2 µM (inactive) | GI50 (SK-MEL-2): 9.64 µM (inactive) | GI50 (SK-MEL-5): 10.2 µM (inactive) | GI50 (SK-OV-3): 12.7 µM (inactive) | GI50 (SN12C): 17.9 µM (inactive) | GI50 (SNB-19): 13.7 µM (inactive) | GI50 (SNB-75): 12 µM (inactive) | GI50 (SR): 12.6 µM (inactive) | GI50 (SW-620): 13 µM (inactive) | GI50 (T47D): 10.5 µM (inactive) | GI50 (TK-10): 15.6 µM (inactive) | GI50 (U-251): 16 µM (inactive) | GI50 (UACC-257): 13.7 µM (inactive) | GI50 (UACC-62): 9.46 µM (inactive) | GI50 (UO-31): 21.4 µM (inactive)
